Two compounds from patent publication US7820683B2, “4-(1H-indazol-5-yl-amino)-quinazoline compounds as erbB receptor tyrosine kinase inhibitors for the treatment of cancer” (AstraZeneca AB, priority 2005, dated 2010) can be followed below.

One may read the IC50 as the concentration that inhibits the measured activity by half.

The subject of experiment [1] is phosphorylation of erbB2 in a MCF7 derived cell line (Clone 24 cells). In words: Clone 24 phospho-erbB2 cell assay, Test (c). It counts as cell-based. The conditions noted are these: Homo sapiens; MCF7 derived Clone 24 cells, 4 hours; read-out: IC50 Test (c): Inhibition of erbB2 tyrosine kinase protein phosphorylation. Here is the method:
This immunofluorescence end point assay measures the ability of a test compound to inhibit the phosphorylation of erbB2 in a MCF7 (breast carcinoma) derived cell line which was generated by transfecting MCF7 cells with the full length erbB2 gene using standard methods to give a cell line that overexpresses full length wild type erbB2 protein (hereinafter ‘Clone 24’ cells).
Clone 24 cells were cultured in Growth Medium (phenol red free Dulbecco's modified Eagle's medium (DMEM) containing 10% foetal bovine serum, 2 mM glutamine and 1.2 mg/ml G418) in a 7.5% CO2 air incubator at 37° C. […] Cell density was measured using a haemocytometer and viability was calculated using Trypan Blue solution before being further diluted in Growth Medium and seeded at a density of 1×10^4 cells per well (in 100 ul) into clear bottomed 96 well plates (Packard, No. 6005182). […]
Immunostaining was performed at room temperature. […] Plates were analysed within six hours of completing the immunostaining.
The Fluorescence signal is each well was measured using an Acumen Explorer Instrument (Acumen Bioscience Ltd.), a plate reader that can be used to rapidly quantitate features of images generated by laser-scanning. […]

The target of another experiment is T1, erbB2 tyrosine kinase (Homo sapiens, UniProt P04626).
T1 construct: Recombinant intracellular fragments of EGFR, erbB2 and erbB4; made in house; host or cells: baculovirus/Sf21 insect cells (cleared lysate used)
T1 sequence (P04626 676-1255 limits assumed): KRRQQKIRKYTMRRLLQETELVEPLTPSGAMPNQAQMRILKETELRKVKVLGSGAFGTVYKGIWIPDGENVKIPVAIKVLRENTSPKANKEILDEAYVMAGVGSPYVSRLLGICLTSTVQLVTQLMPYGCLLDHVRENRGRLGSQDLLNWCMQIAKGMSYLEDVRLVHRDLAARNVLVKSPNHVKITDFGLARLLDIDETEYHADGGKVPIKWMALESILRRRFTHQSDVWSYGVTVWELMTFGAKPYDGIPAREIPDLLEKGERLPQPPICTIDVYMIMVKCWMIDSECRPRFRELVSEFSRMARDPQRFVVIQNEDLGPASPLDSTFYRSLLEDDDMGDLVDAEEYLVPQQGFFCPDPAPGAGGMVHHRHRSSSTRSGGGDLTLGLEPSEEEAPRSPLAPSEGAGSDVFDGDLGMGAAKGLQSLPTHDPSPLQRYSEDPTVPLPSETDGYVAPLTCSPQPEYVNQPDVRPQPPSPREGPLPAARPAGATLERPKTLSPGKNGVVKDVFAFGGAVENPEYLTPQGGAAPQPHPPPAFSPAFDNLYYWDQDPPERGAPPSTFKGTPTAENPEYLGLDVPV
In words: Protein tyrosine kinase phosphorylation assay, Test (a), erbB2. The format is biochemical. The conditions noted are these: recombinant intracellular fragment, ATP at Km; read-out: IC50 Test (a): Inhibition of erbB2 tyrosine kinase protein phosphorylation. Here is the method: (§1) This test measures the ability of a test compound to inhibit the phosphorylation of a tyrosine containing polypeptide substrate by EGFR, erbB2 and erbB4 tyrosine kinase enzyme.
(§2) Recombinant intracellular fragments of EGFR, erbB2 and erbB4 (accession numbers X00588, X03363 and L07868 respectively) were cloned and expressed in the baculovirus/Sf21 system. Lysates were prepared from these cells by treatment with ice-cold lysis buffer (20 mM N-2-hydroxyethylpiperizine-N′-2-ethanesulfonic acid (HEPES) pH7.5, 150 mM NaCl, 10% glycerol, 1% Triton X-100, 1.5 mM MgCl2, 1 mM ethylene glycol-bis(β-aminoethyl ether) N′,N′,N′,N′-tetraacetic acid (EGTA), plus protease inhibitors and then cleared by centrifugation.
(§3) Constitutive kinase activity of these recombinant proteins was determined by their ability to phosphorylate a synthetic peptide (made up of a random co-polymer of Glutamic Acid, Alanine and Tyrosine in the ratio of 6:3:1). […]
(§4) The immobilised phospho-peptide product of the reaction was detected by immunological methods. […]
(§5) Kinase inhibition for a given compound was expressed as an IC50 value. […] The range of phosphorylation was calculated from the positive (vehicle plus ATP) and negative (vehicle minus ATP) control values.

For a further experiment, the target named is T2, EGFR tyrosine kinase (Homo sapiens, UniProt P00533).
T2 construct: Recombinant intracellular fragments of EGFR, erbB2 and erbB4; made in house; host or cells: baculovirus/Sf21 insect cells (cleared lysate used)
T2 sequence (P00533 669-1210 limits assumed): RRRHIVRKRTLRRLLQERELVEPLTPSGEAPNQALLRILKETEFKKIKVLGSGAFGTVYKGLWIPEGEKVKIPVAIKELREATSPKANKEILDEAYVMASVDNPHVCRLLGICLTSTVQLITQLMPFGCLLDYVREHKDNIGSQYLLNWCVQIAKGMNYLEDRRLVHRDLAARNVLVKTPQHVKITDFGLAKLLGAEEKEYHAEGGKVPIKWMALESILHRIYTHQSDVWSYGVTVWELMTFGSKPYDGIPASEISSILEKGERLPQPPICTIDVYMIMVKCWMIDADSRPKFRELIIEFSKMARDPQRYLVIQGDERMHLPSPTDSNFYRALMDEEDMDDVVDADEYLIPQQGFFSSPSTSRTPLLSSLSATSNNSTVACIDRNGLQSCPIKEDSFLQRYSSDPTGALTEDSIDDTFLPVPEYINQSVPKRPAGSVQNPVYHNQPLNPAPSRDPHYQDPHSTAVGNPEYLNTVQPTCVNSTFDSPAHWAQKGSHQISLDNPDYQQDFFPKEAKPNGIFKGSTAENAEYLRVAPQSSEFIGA
In words: Protein tyrosine kinase phosphorylation assay, Test (a), EGFR. It counts as biochemical. The conditions noted are these: recombinant intracellular fragment, ATP at Km; read-out: IC50 Test (a): Inhibition of EGFR tyrosine kinase protein phosphorylation. As to the method: as §1, §2, §3, §4, §5

With `C[C@@H](Oc1cccc2ncnc(Nc3ccc4c(cnn4Cc4ccccn4)c3)c12)C(=O)N1CCOCC1` [Example 2, 5-[(1R)-1-Methyl-2-morpholin-4-yl-2-oxoethoxy]-N-[1-(pyridin-2-ylmethyl)-1H-indazol-5-yl]quinazolin-4-amine], the IC50 in experiment [1] is 35 nM.
As for `C[C@@H](Oc1cccc2ncnc(Nc3ccc4c(cnn4Cc4ccccn4)c3)c12)C(=O)N(C)CCO` [Example 1, (2R)—N-(2-Hydroxyethyl)-N-methyl-2-[(4-{[1-(pyridin-2-ylmethyl)-1H-indazol-5-yl]amino}quinazolin-5-yl)oxy]propanamide], the results for the IC50 on erbB2 tyrosine kinase and at EGFR tyrosine kinase were 12 nM and 210 nM, respectively.
